Legend:
Assay type in all cases: functional
Settings in all cases: foliar, 120 h
[1] = system: Spodoptera litura; assay: Insecticidal activity against the Spodoptera litura larvae in compound treated cabbage leaves assessed as mortality at 200 ppm measured after 5 days by leaf dipping method
[2] = system: Spodoptera litura; assay: Insecticidal activity against the Spodoptera litura larvae in compound treated cabbage leaves assessed as mortality at 3.1 ppm measured after 5 days by leaf dipping method
[3] = system: Spodoptera litura; assay: Insecticidal activity against the Spodoptera litura larvae in compound treated cabbage leaves assessed as mortality at 12.5 ppm measured after 5 days by leaf dipping method
[4] = system: Spodoptera litura; assay: Insecticidal activity against the Spodoptera litura larvae in compound treated cabbage leaves assessed as mortality at 50 ppm measured after 5 days by leaf dipping method

Structure (SMILES)	mortality at 200 ppm [1]	mortality at 3.1 ppm [2]	mortality at 12.5 ppm [3]	mortality at 50 ppm [4]
CCCCOCc1cc(C)cc(C(=O)N(NC(=O)c2ccc(CC)cc2)C(C)(C)C)c1	0%			
CCc1ccc(C(=O)NN(C(=O)c2cc(C)cc(C)c2)C(C)(C)C)cc1 [TEBUFENOZIDE]	10%	3%	10%	10%
CCc1ccc(C(=O)NN(C(=O)c2ccc3ncoc3c2)C(C)(C)C)cc1	1%			
C=Cc1cc(C)cc(C(=O)N(NC(=O)c2ccc(CC)cc2)C(C)(C)C)c1	10%		1%	7%
CCc1ccc(C(=O)NN(C(=O)c2cc(C)cc(C=O)c2)C(C)(C)C)cc1	0%			
CCc1ccc(C(=O)NNC(=O)C2CC(C)CC(C)C2)cc1 (centres undefined)	1%			0%
CCc1ccc(C(=O)NN(C(=O)c2cc(C)cc(COC)c2)C(C)(C)C)cc1	9%			5%
CCc1ccc(C(=O)NN(C(=O)c2ccc3ocnc3c2)C(C)(C)C)cc1	5%			
CCc1ccc(C(=O)NN(C(=O)c2cc(C)cc(CF)c2)C(C)(C)C)cc1	10%		5%	10%
CCc1ccc(C(=O)NN(C(=O)c2cc(C)cc(CCl)c2)C(C)(C)C)cc1	7%			1%
CCc1ccc(C(=O)NN(C(=O)C2C=C(C)CC(C)=C2)C(C)(C)C)cc1	10%		4%	10%
CCc1ccc(C(=O)NN(C(=O)c2ccc3c(c2)OCCO3)C(C)(C)C)cc1	0%			
CCc1ccc(C(=O)NN(C(=O)c2cc(C)cc(CO[Si](C)(C)C(C)(C)C)c2)C(C)(C)C)cc1	0%			
CCc1ccc(C(=O)NN(C(=O)c2cc(C)cc(C(F)F)c2)C(C)(C)C)cc1	10%		8%	10%
CCc1ccc(C(=O)NN(C(=O)c2cc(C)cc(CO)c2)C(C)(C)C)cc1	0%			
